# Test results taken from US5843925A, “Methods for inhibiting angiogenesis, proliferation of endothelial or tumor cells and tumor growth” (American Cyanamid Company, priority 1994, dated 1998).
# Counter-ions that a name gives are not always drawn.
# Assays:
# Format in all cases: cell-based
# A2780/DDP = assay: Antiproliferative activity in human tumor cell lines (A2780/DDP); details: A2780/DDP ovarian tumor cell line
# Method: (§1) PROTOCOLS 1, 2, and 3 are described in greater detail hereinbelow. In general, according to PROTOCOLS 1 and 2, the target ABAE and/or Human Tumor cells are exposed to the compound of Formula I for 48 hours. PROTOCOL 3 exposes ABAE cells to the compounds for 4 days. A detailed description of the protocol is as follows:
# (§2) The antiproliferative activity of the compounds of Formula I of the present invention is evaluated in a panel comprised of human tumor cell lines and an adult bovine aortic endothelial cell line (ABAE). The human tumor cell lines are from
# (§3) Cultures are renewed after 20 passages with cells from a fresh stock of batch-frozen early passage cells. Cell lines are routinely checked for mycoplasma contamination (Genprobe). In a laminar flow hood, cells (1-5×10^4) are plated into 96-well microtiter plates in a volume of 0.1 ml/well with a bulk microtiter dispenser (Denley). […] Compounds are added using a Tomtec dispenser which simultaneously dispenses from one 96-well plate, containing the drug dilutions, to the plates containing the cells. After two days of continuous drug exposure, 50% cold trichloroacetic acid (TCA) is added to 10% final concentration to fix the cells, and after 60 minutes at 4° C., the TCA is aspirated and the plates are washed 5 times with deionized water using a microtiter plate washer. […] A 0.4% solution of the dye, sulforhodamine B, in […] is added to the plates, and the plates are washed 5 times with 1% glacial acetic acid using the automatic plate washed. The bound stain is solubilized with 0.1 ml of 10 mM Tris base. The optical densities are read from an automatic spectrophotometric plate reader (Dynatech) directly to a main frame computer (VAX 8600).
# (§4) Positive controls, that include standard chemotherapeutic drugs (i.e., adriamycin, cisplatin, etc.), are included in every experiment.
# (§5) Background optical density measurements (complete media-cells, and complete media+drug-cells) are automatically subtracted from the appropriate control and test wells. Mean values and standard errors are determined from duplicate wells. A measure is also made of the optical density at time when the drugs are added. The number of cells after treatment (P), as % of control, is calculated for every concentration of drug, as follows: [formula] wherein: T is optical density measurement for treated cells after 48 hours;
# (§6) C is optical density measurement for untreated cells after 48 hours;
# (§7) Co is optical density measurement for cells at the time of drug addition.
# (§8) IC50 of growth inhibition is calculated from the sets of P values using the RS-1 data package (BBN Software).
# (§9) Antiproliferative Activity in Human Tumor Cell Lines
# (§10) The antiproliferative activity of the compounds of Formula I is evaluated in the panel comprised of human tumor cell lines as listed in PROTOCOL 1. This assay is a slight modification of PROTOCOL 1. The modifications include:
# (§11) 1) each concentration for each compound is tested in a single well;
# (§12) 2) compounds are tested at 20, 4, 0.8, 0.16 microgram/ml and additionally in some experiments at 100 and 0.32 microgram/ml;
# (§13) 3) samples are pipetted into a 96-well plate for each of the cell lines by a Beckman Biomek 1000 SL robot;
# (§14) 4) after fixing with TCA each well is washed with 0.35 ml distilled water twice, not five times;
# (§15) 5) after staining with sulforhodamine B each well is washed 3 times, not five times;
# (§16) 6) the growth inhibition (I) as % of control, is calculated using the RS-1 data package (BBN Software), for every concentration of drug, as follows: [formula] wherein: T is optical density measurement for treated cells after 48 hours;
# (§17) 7) IC50 of growth inhibition is determined graphically from dose response curves, as is known in the art.
# MIP = assay: Antiproliferative activity in human tumor cell lines (MIP); details: MIP colon tumor cell line
# Method: as §1, §2
# (§18) All cell lines are maintained in log phase in RPMI 1640 media, supplemented with 5% fetal calf serum, penicillin/streptomycin and 2 mM L-glutamine. Cultures are renewed after 20 passages with cells from a fresh stock of batch-frozen early passage cells. Cell lines are routinely checked for mycoplasma contamination (Genprobe). In a laminar flow hood, cells (1-5×10^4) are plated into 96-well microtiter plates in a volume of 0.1 ml/well with a bulk microtiter dispenser (Denley). […] At this concentration, dimethylsulfoxide has no effect on cell growth. Compounds are added using a Tomtec dispenser which simultaneously dispenses from one 96-well plate, containing the drug dilutions, to the plates containing the cells. After two days of continuous drug exposure, 50% cold trichloroacetic acid (TCA) is added to 10% final concentration to fix the cells, and after 60 minutes at 4° C., the TCA is aspirated and the plates are washed 5 times with deionized water using a microtiter plate washer. The number of cells on the plate are quantitated using a protein dye-binding assay (Monks et al., 1991). A 0.4% solution of the dye, sulforhodamine B, in glacial acetic acid is added to the plates, and the plates are washed 5 times with 1% glacial acetic acid using the automatic plate washed. The bound stain is solubilized with 0.1 ml of 10 mM Tris base. The optical densities are read from an automatic spectrophotometric plate reader (Dynatech) directly to a main frame computer (VAX 8600).
# as §4, §5, §6, §7, §8, §9, §10, §11, §12, §13, §14, §15
# (§19) 6) the growth inhibition (I) as % of control, is calculated using the RS-1 data package (BBN Software), for every concentration of drug, as follows: [formula] wherein: T is optical density measurement for treated cells after 48 hours; […]
# HTB 161 = assay: Antiproliferative activity in human tumor cell lines (HTB 161)
# Method: as §1, §2, §3, §4, §5, §6, §7, §8, §9, §10, §11, §12, §13, §14, §15, §16, §17
# SW620 = assay: Antiproliferative activity in human tumor cell lines (SW620); details: SW-620, SW620 colon tumor cell line
# Method: as §1, §2, §18, §4, §5, §6, §7, §8, §9, §10, §11, §12, §13, §14, §15, §19
SMILES,IC50 (A2780/DDP),IC50 (MIP),IC50 (HTB 161),IC50 (SW620)
"CN(C)CC(=O)Nc1cc(N(C)C)c2c(c1O)C(=O)C1=C(O)[C@]3(O)C(=O)C(C(N)=O)=C(O)[C@@H](N(C)C)C3CC1C2 (stereo partly drawn) [Example 2, [4S-(4a,12aa-1-4,7-Bis(dimethylamino)-9-[[(dimethylamino)acetyl]amino]]-1,4,,4a,5,5a,6,11,12a-octahvdro-3,10,12,12a-tetrahydroxy-1,11-dioxo-2-napththacenecarboxamidedihydrochloride]",7 µg/mL,4.6 µg/mL,6 µg/mL,5.6 µg/mL
"CCCCCCCNCC(=O)Nc1cc(N(C)C)c2c(c1O)C(=O)C1=C(O)[C@]3(O)C(=O)C(C(N)=O)=C(O)[C@@H](N(C)C)C3CC1C2 (stereo partly drawn) [Example 5, [4S-(4α,12aα)]-4,7-Bis(dimethylamino)-9-[[(heptylamino)acetyl]amino]-1,4,4a,5,5a,6,11,12a-octahydro-3,10,12,12a-tetrahydroxy-1,11-dioxo-2-naphthacenecarboxamide dihydrochloride]",2.5 µg/mL,3.2 µg/mL,2.3 µg/mL,2.4 µg/mL
"CCCCCCNCC(=O)Nc1cc(N(C)C)c2c(c1O)C(=O)C1=C(O)[C@]3(O)C(=O)C(C(N)=O)=C(O)[C@@H](N(C)C)C3CC1C2 (stereo partly drawn) [Example 4, [4S-(4α,12aα)]-4,7-Bis(dimethylamino)-9-[(hexylamino)acetyl]amino]-1,4,4a,5,5a,6,11,12a-octahydro-3,10,12,12a-tetrahydroxy-1,11-dioxo-2-naphthacenecarboxamide dihydrochloride]",2.3 µg/mL,2.8 µg/mL,2 µg/mL,2.7 µg/mL
